Laboratory results: patent US20060111305A1, “Metabolites of certain [1,4]diazepino[6,7,1-ij]quinoline derivatives and methods of preparation and use thereof” (Wyeth, priority 2004, published 2006)
Like-named read-outs stand apart in the source and are kept apart here.

Assays:
[1] = Dog urinary excretion and metabolite profiles after oral capsule of [14C]DCDQ; format: in vivo, beagle dogs
Method: Blood samples were collected from the jugular vein at 2, 4, 8, 24 and 48 hour after dose administration into tubes containing potassium EDTA as the anticoagulant and then placed on ice. Aliquots of 50 μL were removed for combustion and determination of radioactivity content. Plasma was immediately obtained from the remaining blood by centrifugation at 4° C. Urine samples were collected into tubes on dry ice at intervals of 0-8, 8-24 and 24-48 hour post-dose. Fecal samples were collected at intervals of 0-8, 8-24 and 24-48 hour post-dose at room temperature, and were homogenized. The biological specimens were stored at approximately −70° C. until analysis.
(§1) For plasma profiles, a TopCount NXT radiometric microplate reader (Perkin Elmer) was used to analyze the radioactivity in collected HPLC fractions. The limit of detection by TopCount was about 1 ng equivalent/mL. A Flo-One β Model A525 radioactivity detector (Perkin Elmer) with a 250 μL LQTR flow cell was used to acquire data for urine and fecal samples. The flow rate of Ultima Flow M scintillation fluid was 1 mL/min, providing a mixing ratio of scintillation cocktail to mobile phase of 5:1. The limits of detection by Flo-One detector were about 200 ng equivalents/mL for urine and 12 ng equivalents/g for feces.
Urine was analyzed for radioactivity concentration and analyzed by HPLC with radioactivity flow detection for metabolite profiles by direct injection to the HPLC column. LC/MS analyses for metabolite identification were also carried out with urine samples.
(§2) A Waters model 2690 HPLC system (Waters Corp., Milford, Mass.) with a built-in autosampler was used for analysis. Separations were accomplished on a Phenomenex Luna C18(2) column (150×2.0 mm, 5 μm) (Phenomenex, Torrance, Calif.). The sample chamber of the autosampler was maintained at 4° C., while the column was at ambient temperature of about 20° C. A variable wavelength UV detector set to monitor 250 nm and a Flo-One β Model A525 radioactivity detector were used for data acquisition. The HPLC mobile phase consisted of 10 mM ammonium acetate, pH 4.5 (A) and acetonitrile (B), and was delivered at 0.2 mL/min. Chromatographic condition A was used for dose analysis, while condition B was used for analysis of urine and plasma, brain and fecal extracts.

[2] = Dog plasma metabolite profiles after single 15 mg/kg oral capsule of [14C]DCDQ; format: in vivo, beagle dogs; details: for concentration at 2 h / concentration at 4 h / concentration at 8 h / concentration at 24 h / concentration at 48 h: male, beagle, dog, plasma, oral, 15 mg/kg, read-out: Estimated plasma concentration in dogs
Method: as §1
Plasma samples were analyzed for metabolite profiles by HPLC. Aliquots of plasma were mixed with two volumes of cold methanol containing 0.1% trifluoroacetic acid (TFA), placed on ice for about 2 minutes and then centrifuged. The supernatant fluid was transferred to a clean tube and evaporated at 22° C. under nitrogen in a Zymark TurboVap LV (Caliper Life Sciences, Hopkinton, Mass.) to a volume of about 0.3 mL. The residue was centrifuged, the supernatant volume measured and extraction efficiency determined by analysis of duplicate 20 μL aliquots for radioactivity. A 200 μL aliquot of the supernatant was injected onto the HPLC column and the effluent was collected at 20 second intervals into 96-well Lumaplates (Perkin Elmer). The plates were dried overnight in an oven at 40° C. and analyzed by a TopCount. Plasma extracts were also analyzed by LC/MS.
as §2

[3] = Incubation of [14C]DCDQ with dog liver microsomes; format: in vitro ADME, beagle dogs; details: NADPH regenerating system, 12 μM DCDQ, 20 min
Method: [^14C]DCDQ was mixed with non-radiolabeled DCDQ (1:3 or 1:5) in the incubations. Microsomal incubations consisted of [^14C]DCDQ, magnesium chloride (10 mM) and liver microsomes incubated in 0.5 mL of 0.1 M potassium phosphate buffer, pH 7.4. [^14C]DCDQ (20 μL) in water was added to the incubation tubes containing buffer, magnesium chloride solution and microsomes. After mixing, the tubes were pre-incubated for 2 minutes in a shaking water bath at 37° C. The reactions were initiated by the addition of UDPGA or the NADPH regenerating system. UDPGA was added to incubations as a 50 μL aliquot of a 20 mM solution in water, to give a final concentration of 2 mM. An NADPH regenerating system (30 μL) was added to incubations to evaluate CYP450-mediated metabolism. The NADPH regenerating system consisted of glucose-6-phosphate (2 mg/mL), glucose-6-phosphate dehydrogenase (0.8 units/mL) and NADP^+ (2 mg/mL). Control incubations were conducted under the same conditions, but without the NADPH generating system, UDPGA or microsomes. All incubations were performed in duplicate. Incubations were stopped by the addition of 0.5 mL ice-cold methanol. Samples were vortex-mixed. Denatured proteins were separated by centrifugation at 4300 rpm and 4° C. for 10 minutes (Model T21 super centrifuge, Sorvall). The protein pellets were extracted with 0.5 mL of methanol. The supernatant was combined for each sample, mixed and evaporated to a volume of about 0.3 mL under a nitrogen stream in a Zymark TurboVap LV evaporator (Caliper Life Science, Hopkinton, Mass.). The concentrated sample was centrifuged and aliquots were radioassayed and analyzed by HPLC. This method recovered an average of 92.1% of the radioactivity from the reaction mixture.
To evaluate species differences in cytochrome P450- and UGT-mediated metabolism, [^14C]DCDQ was incubated for 20 minutes with 0.5 mg/mL liver microsomal proteins from mice, rats, dogs or humans in the presence of the NADPH regenerating system or UDPGA. The assay conditions were the same as described above, and DCDQ concentrations were 12 μM and 56 μM for cytochrome P450- and UGT-mediated metabolism, respectively.
A Waters model 2690 HPLC system (Waters Corp., Milford, Mass.) with a built-in autosampler was used for analysis. Separations were accomplished on a Phenomenex Luna C18(2) column (2×150 mm, 5 μm) (Phenomenex, Torrance, Calif.) coupled with a filter (4×2 mm) cartridge. A variable wavelength UV detector set to monitor 250 nm and Flo-One β Model A525 radioactivity flow detector (Perkin Elmer) with a 250 μL LQTR flow cell were used for data acquisition. The flow rate of Ultima Flow M scintillation fluid was 1 mL/min, providing a mixing ratio of scintillation cocktail to mobile phase of 5:1. […]

Row | Structure (SMILES) | Chromatographic distribution of radioactivity in dog urine ([1]; 8-24 hr, dog 1) [%] | Chromatographic distribution of radioactivity in dog urine ([1]; 8-24 hr, dog 3) [%] | Chromatographic distribution of radioactivity in dog urine ([1]; 24-48 hr, Mean) [%] | Chromatographic distribution of radioactivity in dog urine ([1]; 24-48 hr, dog 1) [%] | Chromatographic distribution of radioactivity in dog urine ([1]; 24-48 hr, dog 3) [%] | Chromatographic distribution of radioactivity in dog urine ([1]; 24-48 hr, dog 4) [%] | Chromatographic distribution of radioactivity in dog plasma ([2]; 2 hr, dog 1) [%] | Chromatographic distribution of radioactivity in dog plasma ([2]; 2 hr, dog 2) [%] | Chromatographic distribution of radioactivity in dog plasma ([2]; 4 hr, dog 1) [%] | Chromatographic distribution of radioactivity in dog plasma ([2]; 4 hr, dog 2) [%] | Chromatographic distribution of radioactivity in dog plasma ([2]; 8 hr, dog 1) [%] | Estimated plasma concentration in dogs ([2]; 8 hr, dog 2) | Estimated plasma concentration in dogs ([2]; 8 hr, dog 3) | Chromatographic distribution of radioactivity in dog plasma ([2]; 24 hr, dog 1) [%] | Chromatographic distribution of radioactivity in dog plasma ([2]; 24 hr, dog 3) [%] | Estimated plasma concentration in dogs ([2]; 48 hr, dog 1) | Estimated plasma concentration in dogs ([2]; 48 hr, dog 3) | concentration at 4 h ([2]; 4 hr, dog 1) [ng/mL] | concentration at 4 h ([2]; 4 hr, dog 2) [ng/mL] | concentration at 24 h ([2]; 24 hr, dog 1) [ng/mL] | further results
1 | c1cc2c3c(c1)[C@H]1CCC[C@H]1CN3CCNC2 [DCDQ, (9aR,12aS)-4,5,6,7,9,9a,10,11,12,12a-decahydro-cyclopenta[c][1,4]diazepine[6,7,1-ij]quinoline, reference compound] | 9.5 | 11 | 3.4 | 3.8 | 3.0 | 6.9 | 11 | 1.9 | 11 | 21 | 2.7 | BQL | BQL | 2.6 | 2.3 | BQL | BQL | 52.5 | 345 | 39.6 | Estimated plasma concentration in dogs ([2]; 24 hr, dog 2): BQL; Estimated plasma concentration in dogs ([2]; 48 hr, dog 2): BQL; concentration at 2 h ([2]; 2 hr, dog 1): 39.6 ng/mL; concentration at 2 h ([2]; 2 hr, dog 2): 23.2 ng/mL; concentration at 8 h ([2]; 8 hr, dog 1): 14.5 ng/mL; concentration at 24 h ([2]; 24 hr, dog 3): 43.8 ng/mL
2 | OC1CN2C[C@@H]3CCC[C@@H]3c3cccc(c32)CN1 (some centres unmarked) [Metabolite M1, hydroxy DCDQ] | 8.3 | 6.7 | 5.7 | 4.4 | 7.6 | 3.2 | 8.4 | 2.6 | 8.0 | 4.9 | 8.0 |  |  | 6.8 | 6.4 |  | BQL | 40 | 80.9 | 104 | metabolite detected in microsomal incubation [3]: not detected; Chromatographic distribution of radioactivity in dog urine ([1]; 8-24 hr, Mean): 6.6%; Chromatographic distribution of radioactivity in dog urine ([1]; 8-24 hr, dog 2): 4.7%; Chromatographic distribution of radioactivity in dog urine ([1]; 24-48 hr, dog 2): 7.6%; Chromatographic distribution of radioactivity in dog plasma ([2]; 8 hr, dog 2): 4.7%; Chromatographic distribution of radioactivity in dog plasma ([2]; 8 hr, dog 3): 9.7%; Chromatographic distribution of radioactivity in dog plasma ([2]; 24 hr, dog 2): 2.1%; Chromatographic distribution of radioactivity in dog plasma ([2]; 48 hr, dog 1): 12%; Chromatographic distribution of radioactivity in dog plasma ([2]; 48 hr, dog 2): 6.7%; concentration at 2 h ([2]; 2 hr, dog 1): 30.1 ng/mL; concentration at 2 h ([2]; 2 hr, dog 2): 32.9 ng/mL; concentration at 8 h ([2]; 8 hr, dog 1): 43.3 ng/mL; concentration at 8 h ([2]; 8 hr, dog 2): 61.9 ng/mL; concentration at 8 h ([2]; 8 hr, dog 3): 24.8 ng/mL; concentration at 24 h ([2]; 24 hr, dog 2): 23 ng/mL; concentration at 24 h ([2]; 24 hr, dog 3): 125 ng/mL; concentration at 48 h ([2]; 48 hr, dog 1): 58 ng/mL; concentration at 48 h ([2]; 48 hr, dog 2): 44.7 ng/mL
3 | O=C1CC[C@@H]2c3cccc4c3N(CCNC4)C[C@H]12 [Metabolite M7, 17-keto DCDQ] |  |  | 5.9 | 5.0 | 9.2 | 3.4 |  |  | 6.9 | 7.8 |  | BQL | BQL | 13 |  | BQL | BQL | 34.5 | 127 | 202 | Chromatographic distribution of radioactivity in dog urine ([1]; 24-48 hr, dog 2): 6.2%; Estimated plasma concentration in dogs ([2]; 2 hr, dog 1): BQL; Estimated plasma concentration in dogs ([2]; 2 hr, dog 2): BQL; Estimated plasma concentration in dogs ([2]; 8 hr, dog 1): BQL; Chromatographic distribution of radioactivity in dog plasma ([2]; 24 hr, dog 2): 6.7%; Estimated plasma concentration in dogs ([2]; 24 hr, dog 3): BQL; Estimated plasma concentration in dogs ([2]; 48 hr, dog 2): BQL; concentration at 24 h ([2]; 24 hr, dog 2): 73.6 ng/mL
